The text below walks through data of US11708344B2, “Flavone derivatives for the treatment and prophylaxis of hepatitis B virus disease” (Hoffmann-La Roche Inc., priority 2018, dated 2023).

The nature of data set [1]: Human microsome stability assay. Type of data set: in vitro ADME. To be noted: human liver microsomes, 1 μM test compound, 0.5 mg/mL microsomal protein, 37° C., pH 7.4, 0-30 minutes. In a few lines:
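Compound (1 μM) incubated at 37 °C with human liver microsomes (0.5 mg/mL protein) in 100 mM potassium phosphate, pH 7.4, after 10 min preincubation; started with NADPH regenerating system. Sampled at 0–30 min, quenched with cold ACN; remaining parent quantified by LC-MS/MS, with no-NADPH controls.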

Data set [2] has as its system HBeAg (surrogate marker for cccDNA) in HepDES19 cells. In words: Engineered HepDES19 primary screen assay (HBeAg ELISA). It counts as cell-based, HBV. To be noted: Hepatitis B virus, HepDES19, 120 h, read-out: IC50 (HBeAg level, HepDES19 primary screen assay), HepDES19 cells, 5 days compound incubation, HBeAg ELISA. The method, boiled down:
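HepDES19 cells were induced by Tet withdrawal for 8 days, then treated with half-log compound dilutions (1% DMSO final) for 5 days at 37 °C. HBeAg was measured by ELISA as the cccDNA surrogate, viability by CCK-8, and IC50 from a 4-parameter logistic fit.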
On the technique in general: ELISA stands for enzyme-linked immunosorbent assay.

By IC50 is commonly meant the concentration that inhibits the measured activity by half. In the case of `CS(=O)(=O)NC(=O)[C@H]1C[C@H](Oc2cc(C(F)(F)F)ccc2-c2cc(=O)c3cccc(Cl)c3o2)C1` [Example B048-B, Trans-3-[2-(8-chloro-4-oxo-chromen-2-yl)-5-(trifluoromethyl)phenoxy]-N-methylsulfonyl-cyclobutanecarboxamide], the “Clearance of Human microsome” value in data set [1] amounted to 0.369 L/h/kg. The IC50 in data set [2] was 3.08 µM.

As to `Cc1cc(-c2cc(=O)c3cccc(Cl)c3o2)c(O[C@H]2C[C@@H](C(=O)NS(C)(=O)=O)C2)cc1Br` [Example B049-A, Cis-3-[5-bromo-2-(8-chloro-4-oxo-chromen-2-yl)-4-methyl-phenoxy]-N-methylsulfonyl-cyclobutanecarboxamide], in data set [1], the “Clearance of Human microsome” value is 0.45 L/h/kg. The IC50 in data set [2] is 12.2 µM.

As to `COc1cc(O[C@H]2C[C@@H](C(=O)NS(C)(=O)=O)C2)c(-c2cc(=O)c3cccc(Cl)c3o2)cc1C` [Example B050-A, Cis-3-[2-(8-chloro-4-oxo-chromen-2-yl)-5-methoxy-4-methyl-phenoxy]-N-methylsulfonyl-cyclobutanecarboxamide], in data set [1], the “Clearance of Human microsome” value turned out to be 0.369 L/h/kg. Also, the IC50 in data set [2] was determined as 7.03 µM.

For `COc1cc(-c2cc(=O)c3cccc(Cl)c3o2)c(O[C@H]2C[C@@H](C(=O)NS(C)(=O)=O)C2)cc1Br` [Example B053-A, Cis-3-[5-bromo-2-(8-chloro-4-oxo-chromen-2-yl)-4-methoxy-phenoxy]-N-methylsulfonyl-cyclobutanecarboxamide], in data set [1], the “Clearance of Human microsome” value came to 0.369 L/h/kg. The IC50 in data set [2] amounted to 3.36 µM.

For `COc1cc(-c2cc(=O)c3cccc(Cl)c3o2)c(O[C@H]2C[C@H](C(=O)NS(C)(=O)=O)C2)cc1Br` [Example B053-B, Trans-3-[5-bromo-2-(8-chloro-4-oxo-chromen-2-yl)-4-methoxy-phenoxy]-N-methylsulfonyl-cyclobutanecarboxamide], the “Clearance of Human microsome” value in data set [1] was found to be 0.369 L/h/kg. Besides, the IC50 in data set [2] came out at 0.912 µM.

`COc1cc(-c2cc(=O)c3cccc(Cl)c3o2)c(O[C@H]2C[C@@H](C(=O)NS(=O)(=O)C3CC3)C2)cc1Br` [Example B054, Cis-3-[5-bromo-2-(8-chloro-4-oxo-chromen-2-yl)-4-methoxy-phenoxy]-N-cyclopropylsulfonyl-cyclobutanecarboxamide]: the “Clearance of Human microsome” value in data set [1] is 0.369 L/h/kg. The IC50 in data set [2] came to 1.65 µM.

With `COc1cc(O[C@H]2C[C@@H](C(=O)NS(=O)(=O)C3CC3)C2)c(-c2cc(=O)c3cccc(Cl)c3o2)cc1Br` [Example B056-A, Cis-3-[4-bromo-2-(8-chloro-4-oxo-chromen-2-yl)-5-methoxy-phenoxy]-N-cyclopropylsulfonyl-cyclobutanecarboxamide], the “Clearance of Human microsome” value in data set [1] worked out at 0.389 L/h/kg. The IC50 in data set [2] stood at 9.44 µM.

Take `COc1cc(OC2CC(C(=O)NS(C)(=O)=O)C2)c(-c2cc(=O)c3cccc(Cl)c3o2)cc1OC` (stereo not shown) [Example B057, 3-[2-(8-chloro-4-oxo-chromen-2-yl)-4,5-dimethoxy-phenoxy]-N-methylsulfonyl-cyclobutanecarboxamide]: the “Clearance of Human microsome” value in data set [1] was 0.369 L/h/kg. Besides, the IC50 in data set [2] worked out at 1.08 µM.

For the molecule `NS(=O)(=O)CCCOc1cc(C(F)(F)F)ccc1-c1cc(=O)c2cccc(Cl)c2o1` [Example B072, 3-[2-(8-chloro-4-oxo-chromen-2-yl)-5-(trifluoromethyl)phenoxy]propane-1-sulfonamide], the “Clearance of Human microsome” value in data set [1] stood at 0.533 L/h/kg. Further, the 50% inhibitory concentration (IC50) in data set [2] worked out at 0.95 µM.

`O=C(O)[C@@H]1C[C@@H](Oc2cc(C(F)(F)F)ccc2-c2cc(=O)c3cccc(Cl)c3o2)CN1S(=O)(=O)C1CC1` [Example B077]: in data set [1], the “Clearance of Human microsome” value came to 0.369 L/h/kg. In data set [2], the IC50 was found to be 0.657 µM.

With `O=C(O)[C@@H]1C[C@H](Oc2cc(C(F)(F)F)ccc2-c2cc(=O)c3cccc(Cl)c3o2)CN1S(=O)(=O)C1CC1` [Example B078, (2S,4S)-4-[2-(8-chloro-4-oxo-chromen-2-yl)-5-(trifluoromethyl)phenoxy]-1-cyclopropylsulfonyl-pyrrolidine-2-carboxylic acid], in data set [1], the “Clearance of Human microsome” value stood at 0.369 L/h/kg. Besides, the IC50 in data set [2] worked out at 0.541 µM.

Take `O=C(O)[C@@H]1C[C@H](Oc2cc(C(F)(F)F)ccc2-c2cc(=O)c3cccc(Cl)c3o2)CN1S(=O)(=O)c1ccccc1` [Example B080, (2S,4S)-1-(benzenesulfonyl)-4-[2-(8-chloro-4-oxo-chromen-2-yl)-5-(trifluoromethyl)phenoxy]pyrrolidine-2-carboxylic acid]: in data set [1], the “Clearance of Human microsome” value came to 0.369 L/h/kg. Moreover, the IC50 in data set [2] is 1.2 µM.

With `Cc1cc(-c2cc(=O)c3cccc(Cl)c3o2)c(O[C@H]2C[C@@H](C(=O)O)N(S(=O)(=O)c3ccccc3)C2)cc1Cl` [Example B084, (2S,4S)-1-(benzenesulfonyl)-4-[5-chloro-2-(8-chloro-4-oxo-chromen-2-yl)-4-methyl-phenoxy]pyrrolidine-2-carboxylic acid], the “Clearance of Human microsome” value in data set [1] amounted to 0.369 L/h/kg. Also, the IC50 in data set [2] stood at 0.533 µM.

`O=C(O)[C@@H]1C[C@H](Oc2cc(Br)ccc2-c2cc(=O)c3cccc(Cl)c3o2)CN1C(=O)c1ccccc1` [Example B086]: in data set [1], the “Clearance of Human microsome” value was found to be 0.369 L/h/kg. Besides, the IC50 in data set [2] amounted to 4.89 µM.

For the molecule `O=C(O)[C@H]1C[C@H](Oc2cc(C(F)(F)F)ccc2-c2cc(=O)c3cccc(Cl)c3o2)CN1S(=O)(=O)c1ccccc1` [Example B087, (2R,4S)-1-(benzenesulfonyl)-4-[2-(8-chloro-4-oxo-chromen-2-yl)-5-(trifluoromethyl)phenoxy]pyrrolidine-2-carboxylic acid], the “Clearance of Human microsome” value in data set [1] worked out at 0.369 L/h/kg. Moreover, the IC50 in data set [2] came to 3 µM.

In the case of `O=C(O)[C@H]1C[C@@H](Oc2cc(C(F)(F)F)ccc2-c2cc(=O)c3cccc(Cl)c3o2)CN1S(=O)(=O)c1ccccc1` [Example B088, (2R,4R)-1-(benzenesulfonyl)-4-[2-(8-chloro-4-oxo-chromen-2-yl)-5-(trifluoromethyl)phenoxy]pyrrolidine-2-carboxylic acid], the “Clearance of Human microsome” value in data set [1] stood at 0.369 L/h/kg. For the same molecule, the half-inhibitory concentration (IC50) in data set [2] turned out to be 1.85 µM.

Regarding `O=C(O)COCCCOc1cc(C(F)(F)F)ccc1-c1cc(=O)c2cccc(Cl)c2o1` [Example C001, 2-[3-[2-(8-chloro-4-oxo-chromen-2-yl)-5-(trifluoromethyl)phenoxy]propoxy]acetic acid], the “Clearance of Human microsome” value in data set [1] is 0.369 L/h/kg. Further, the IC50 in data set [2] amounted to 3.05 µM.

For the molecule `COC(=O)C1CC(OCCOc2cc(Br)ccc2-c2cc(=O)c3cccc(Cl)c3o2)C1` (stereo not shown) [Example C003a, methyl 3-[2-[5-bromo-2-(8-chloro-4-oxo-chromen-2-yl)phenoxy]ethoxy]cyclobutanecarboxylate], in data set [1], the “Clearance of Human microsome” value amounted to 0.369 L/h/kg. Moreover, the 50% inhibitory concentration (IC50) in data set [2] was 0.4 µM.

With `O=C(O)COCCOc1cc(C(F)(F)F)ccc1-c1cc(=O)c2cccc(Cl)c2o1` [Example C005, 2-[2-[2-(8-chloro-4-oxo-chromen-2-yl)-5-(trifluoromethyl)phenoxy]ethoxy]acetic acid], in data set [1], the “Clearance of Human microsome” value was found to be 0.485 L/h/kg. In addition, in data set [2], the IC50 came to 17.7 µM.

As for `O=C(O)COCCCOc1cc(Cl)ccc1-c1cc(=O)c2cccc(Cl)c2o1` [Example C009, 2-[3-[5-chloro-2-(8-chloro-4-oxo-chromen-2-yl)phenoxy]propoxy]acetic acid], the “Clearance of Human microsome” value in data set [1] worked out at 0.369 L/h/kg. The IC50 in data set [2] came to 2.66 µM.

Take `COc1cc(OCCCOCC(=O)O)c(-c2cc(=O)c3cccc(Cl)c3o2)cc1OC` [Example C012, 2-[3-[2-(8-chloro-4-oxo-chromen-2-yl)-4,5-dimethoxy-phenoxy]propoxy]acetic acid]: the “Clearance of Human microsome” value in data set [1] came out at 0.369 L/h/kg. Also, the IC50 in data set [2] is 5.26 µM.

`Cc1cc(-c2cc(=O)c3cccc(Br)c3o2)c(OCCCOCC(=O)O)cc1Cl` [Example C018, 2-[3-[2-(8-bromo-4-oxo-chromen-2-yl)-5-chloro-4-methyl-phenoxy]propoxy]acetic acid]: in data set [1], the “Clearance of Human microsome” value amounted to 0.404 L/h/kg. The IC50 in data set [2] stood at 4.82 µM.

For the molecule `COc1cc(-c2cc(=O)c3cccc(Cl)c3o2)c(OCCOCC(=O)O)cc1Br` [Example C020, 2-[2-[5-bromo-2-(8-chloro-4-oxo-chromen-2-yl)-4-methoxy-phenoxy]ethoxy]acetic acid], in data set [1], the “Clearance of Human microsome” value was determined as 0.369 L/h/kg. The half-inhibitory concentration (IC50) in data set [2] was found to be 5.55 µM.

For `Cc1cc(-c2cc(=O)c3cccc(Cl)c3o2)c(OCCOCC(=O)O)cc1Br` [Example C021, 2-[2-[5-bromo-2-(8-chloro-4-oxo-chromen-2-yl)-4-methyl-phenoxy]ethoxy]acetic acid], the “Clearance of Human microsome” value in data set [1] turned out to be 0.46 L/h/kg. Moreover, in data set [2], the IC50 turned out to be 9.25 µM.

In the case of `COc1cc(OCCOCC(=O)O)c(-c2cc(=O)c3cccc(Cl)c3o2)cc1OC` [Example C022, 2-[2-[2-(8-chloro-4-oxo-chromen-2-yl)-4,5-dimethoxy-phenoxy]ethoxy]acetic acid], the “Clearance of Human microsome” value in data set [1] was determined as 0.369 L/h/kg. Further, the IC50 in data set [2] worked out at 5.53 µM.

Turning to `O=C(O)COCCOc1cc(OC(F)(F)F)ccc1-c1cc(=O)c2cccc(Cl)c2o1` [Example C023, 2-[2-[2-(8-chloro-4-oxo-chromen-2-yl)-5-(trifluoromethoxy)phenoxy]ethoxy]acetic acid], in data set [1], the “Clearance of Human microsome” value came out at 0.369 L/h/kg. In addition, in data set [2], the IC50 amounted to 3.99 µM.
